Legend:
Format in all cases: in vivo
[1] = system: Diabrotica balteata (Corn Root Worm); experiment: Example B1: Activity against Diabrotica balteata (corn root worm), sprayed maize sprouts; settings: 96 h, application rate 200 ppm, L2 larvae on sprayed maize sprouts, 4 days after infestation, read-out: effect in at least one of the two categories (mortality or growth inhibition)
Protocol: Example B1: Activity Against Diabrotica balteata (Corn Root Worm)
Maize sprouts placed onto an agar layer in 24-well microtiter plates were treated with aqueous test solutions prepared from 10′000 ppm DMSO stock solutions by spraying. After drying, the plates were infested with L2 larvae (6 to 10 per well). The samples were assessed for mortality and growth inhibition in comparison to untreated samples 4 days after infestation.

[2] = system: Plutella xylostella (Diamond Back Moth); experiment: Example B3: Activity against Plutella xylostella (diamond back moth), artificial diet; settings: 192 h, application rate 200 ppm, eggs on artificial diet, 8 days after infestation, read-out: effect in at least one of the two categories (mortality or growth inhibition)
Protocol: Example B3: Activity Against Plutella xylostella (Diamond Back Moth)
24-well microtiter plates with artificial diet were treated with aqueous test solutions prepared from 10′000 ppm DMSO stock solutions by pipetting. After drying, Plutella eggs were pipetted through a plastic stencil onto a gel blotting paper and the plate was closed with it. The samples were assessed for mortality and growth inhibition in comparison to untreated samples 8 days after infestation. The following compounds gave an effect of at least 80% in at least one of the two categories (mortality or growth inhibition) at an application rate of 200 ppm: P2, P4, P5, P6, P8, P9, P10, P11, P12, P14, P15, P16, P17, P18, P19, P20, P21, P22, P23, P24, P25, P26, P27, P28, P29, P30, P31, P32, P33, P34, P35, P36, P38, P39, P40, P42, P45, P46, P47, P49, P50, P51, P52.

[3] = system: Euschistus heros (Neotropical Brown Stink Bug); experiment: Example B2: Activity against Euschistus heros (neotropical brown stink bug), sprayed soybean leaves; settings: 120 h, application rate 200 ppm, N2 nymphs on sprayed soybean leaves, 5 days after infestation, read-out: effect in at least one of the two categories (mortality or growth inhibition)
Protocol: Example B2: Activity Against Euschistus heros (Neotropical Brown Stink Bug)
Soybean leaves on agar in 24-well microtiter plates were sprayed with aqueous test solutions prepared from 10′000 ppm DMSO stock solutions. After drying the leaves were infested with N2 nymphs. The samples were assessed for mortality and growth inhibition in comparison to untreated samples 5 days after infestation.

[4] = system: Spodoptera littoralis (Egyptian Cotton Leaf Worm); experiment: Example B6: Activity against Spodoptera littoralis (Egyptian cotton leaf worm); settings: foliar, 72 h, application rate 200 ppm, L1 larvae on sprayed cotton leaf discs, 3 days after infestation, read-out: control (mortality, anti-feeding effect or growth inhibition)
Protocol: Example B6: Activity Against Spodoptera littoralis (Egyptian Cotton Leaf Worm)
Cotton leaf discs were placed onto agar in 24-well microtiter plates and sprayed with aqueous test solutions prepared from 10′000 ppm DMSO stock solutions. After drying the leaf discs were infested with five L1 larvae. The samples were assessed for mortality, anti-feeding effect, and growth inhibition in comparison to untreated samples 3 days after infestation. Control of Spodoptera littoralis by a test sample is given when at least one of the categories mortality, anti-feedant effect, and growth inhibition is higher than the untreated sample.

CCSc1cc(C2CC2)cnc1-c1cc2ncn(CC(F)(F)C(F)(F)F)c2cn1 [Compound P9, 6-(5-cyclopropyl-3-ethylsulfanyl-2-pyridyl)-3-(2,2,3,3,3-pentafluoropropyl) imidazo[4,5-c]pyridine]
≥ 80%: percent effect (mortality or growth inhibition) at 200 ppm [1] | percent effect (mortality or growth inhibition) at 200 ppm [2]

CCS(=O)(=O)c1cc(NC)cnc1-c1cc2ccn(CC(F)(F)C(F)(F)F)c2cn1 [Compound P18, 5-ethylsulfonyl-N-methyl-6-[1-(2,2,3,3,3-pentafluoropropyl)pyrrolo[2,3-c]pyridin-5-yl]pyridin-3-amine]
≥ 80%: percent effect (mortality or growth inhibition) at 200 ppm [1] | percent effect (mortality or growth inhibition) at 200 ppm [3] | percent effect (mortality or growth inhibition) at 200 ppm [2] | percent control (mortality, anti-feedant effect or growth inhibition) at 200 ppm [4]

CCS(=O)(=O)c1cc(C(C)(C)C#N)cnc1-c1cc2ccn(CC(F)(F)C(F)(F)F)c2cn1 [Compound P19, 2-[5-ethylsulfonyl-6-[1-(2,2,3,3,3-pentafluoropropyl)pyrrolo[2,3-c]pyridin-5-yl]-3-pyridyl]-2-methyl-propanenitrile]
≥ 80%: percent effect (mortality or growth inhibition) at 200 ppm [1] | percent effect (mortality or growth inhibition) at 200 ppm [3] | percent effect (mortality or growth inhibition) at 200 ppm [2] | percent control (mortality, anti-feedant effect or growth inhibition) at 200 ppm [4]

CCSc1cc(Oc2ccccn2)cnc1-c1cc2cnn(CC(F)(F)C(F)(F)F)c2cn1 [Compound P20, 5-[3-ethylsulfanyl-5-(2-pyridyloxy)-2-pyridyl]-1-(2,2,3,3,3-pentafluoropropyl) pyrazolo [3,4-c]pyridine]
≥ 80%: percent effect (mortality or growth inhibition) at 200 ppm [1] | percent effect (mortality or growth inhibition) at 200 ppm [3] | percent effect (mortality or growth inhibition) at 200 ppm [2] | percent control (mortality, anti-feedant effect or growth inhibition) at 200 ppm [4]

CCS(=O)(=O)c1cc(C2CC2)cnc1-c1cc2cnn(CC(F)(F)C(F)(F)F)c2cn1 [Compound P28, 5-(5-cyclopropyl-3-ethylsulfonyl-2-pyridyl)-1-(2,2,3,3,3-pentafluoropropyl) pyrazolo[3,4-c] pyridine]
≥ 80%: percent effect (mortality or growth inhibition) at 200 ppm [1] | percent effect (mortality or growth inhibition) at 200 ppm [3] | percent effect (mortality or growth inhibition) at 200 ppm [2] | percent control (mortality, anti-feedant effect or growth inhibition) at 200 ppm [4]

CCSc1cc(C(C)(C)C#N)cnc1-c1cc2ccn(CC(F)(F)C(F)(F)F)c2cn1 [Compound P29, 2-[5-ethylsulfanyl-6-[1-(2,2,3,3,3-pentafluoropropyl)pyrrolo[2,3-c]pyridin-5-yl]-3-pyridyl]-2-methyl-propanenitrile]
≥ 80%: percent effect (mortality or growth inhibition) at 200 ppm [1] | percent effect (mortality or growth inhibition) at 200 ppm [2]

CCSc1cc(C(F)(F)F)cnc1-c1cc2cnn(CC(F)(F)C(F)(F)F)c2cn1 [Compound P30, 5-[3-ethylsulfanyl-5-(trifluoromethyl)-2-pyridyl]-1-(2,2,3,3,3-pentafluoropropyl) pyrazolo[3,4-c] pyridine]
≥ 80%: percent effect (mortality or growth inhibition) at 200 ppm [1] | percent effect (mortality or growth inhibition) at 200 ppm [3] | percent effect (mortality or growth inhibition) at 200 ppm [2] | percent control (mortality, anti-feedant effect or growth inhibition) at 200 ppm [4]

CCS(=O)(=O)c1ccc(-n2cncn2)nc1-c1cc2ccn(CC(F)(F)C(F)(F)F)c2cn1 [Compound P35, 5-[3-ethylsulfonyl-6-(1,2,4-triazol-1-yl)-2-pyridyl]-1-(2,2,3,3,3-pentafluoropropyl) pyrrolo[2,3-c]pyridine]
≥ 80%: percent effect (mortality or growth inhibition) at 200 ppm [1] | percent effect (mortality or growth inhibition) at 200 ppm [2] | percent control (mortality, anti-feedant effect or growth inhibition) at 200 ppm [4]

CCS(=O)(=O)c1ccc(Cl)nc1-c1cc2ccn(CC(F)(F)C(F)(F)F)c2cn1 [Compound P36, 5-(6-chloro-3-ethylsulfonyl-2-pyridyl)-1-(2,2,3,3,3-pentafluoropropyl) pyrrolo[2,3-c]pyridine]
≥ 80%: percent effect (mortality or growth inhibition) at 200 ppm [1] | percent effect (mortality or growth inhibition) at 200 ppm [2] | percent control (mortality, anti-feedant effect or growth inhibition) at 200 ppm [4]

CCSc1cc(C2(C#N)CC2)cnc1-c1cc2ccn(CC(F)(F)C(F)(F)F)c2cn1 [Compound P37, 1-[5-ethylsulfanyl-6-[1-(2,2,3,3,3-pentafluoropropyl)pyrrolo[2,3-c]pyridin-5-yl]-3-pyridyl] cyclopropane-carbonitrile]
≥ 80%: percent effect (mortality or growth inhibition) at 200 ppm [1] | percent control (mortality, anti-feedant effect or growth inhibition) at 200 ppm [4]

CCSc1cc(C2(C#N)CC2)cnc1-c1cc2ncn(CC(F)(F)C(F)(F)F)c2cn1 [Compound P38, 1-[5-ethylsulfanyl-6-[3-(2,2,3,3,3-pentafluoropropyl)imidazo[4,5-c]pyridin-6-yl]-3-pyridyl] cyclopropane-carbonitrile]
≥ 80%: percent effect (mortality or growth inhibition) at 200 ppm [1] | percent effect (mortality or growth inhibition) at 200 ppm [3] | percent effect (mortality or growth inhibition) at 200 ppm [2] | percent control (mortality, anti-feedant effect or growth inhibition) at 200 ppm [4]

CCSc1cc(-n2ccc(Cl)n2)cnc1-c1cc2cnn(CC(F)(F)C(F)(F)F)c2cn1 [Compound P39, 5-[5-(3-chloropyrazol-1-yl)-3-ethylsulfanyl-2-pyridyl]-1-(2,2,3,3,3-pentafluoropropyl) pyrazolo[3,4-c]pyridine]
≥ 80%: percent effect (mortality or growth inhibition) at 200 ppm [1] | percent effect (mortality or growth inhibition) at 200 ppm [2] | percent control (mortality, anti-feedant effect or growth inhibition) at 200 ppm [4]

CCS(=O)(=O)c1cc(-n2ccc(C(F)(F)F)n2)cnc1-c1cc2cnn(CC(F)(F)C(F)(F)F)c2cn1 [Compound P45, 5-[3-ethylsulfonyl-5-[3-(trifluoromethyl)pyrazol-1-yl]-2-pyridyl]-1-(2,2,3,3,3-pentafluoropropyl) pyrazolo[3,4-c]pyridine]
≥ 80%: percent effect (mortality or growth inhibition) at 200 ppm [1] | percent effect (mortality or growth inhibition) at 200 ppm [3] | percent effect (mortality or growth inhibition) at 200 ppm [2] | percent control (mortality, anti-feedant effect or growth inhibition) at 200 ppm [4]

CCS(=O)(=O)c1ccc(Cl)nc1-c1cc2cnn(CC(F)(F)C(F)(F)F)c2cn1 [Compound P49, 5-(6-chloro-3-ethylsulfonyl-2-pyridyl)-1-(2,2,3,3,3-pentafluoropropyl) pyrazolo[3,4-c]pyridine]
≥ 80%: percent effect (mortality or growth inhibition) at 200 ppm [1] | percent effect (mortality or growth inhibition) at 200 ppm [3] | percent effect (mortality or growth inhibition) at 200 ppm [2] | percent control (mortality, anti-feedant effect or growth inhibition) at 200 ppm [4]

CCSc1cc(-n2ccc(C(F)(F)F)n2)cnc1-c1cc2cnn(CC(F)(F)C(F)(F)F)c2cn1 [Compound P50, 5-[3-ethylsulfanyl-5-[3-(trifluoromethyl)pyrazol-1-yl]-2-pyridyl]-1-(2,2,3,3,3-pentafluoropropyl) pyrazolo[3,4-c]pyridine]
≥ 80%: percent effect (mortality or growth inhibition) at 200 ppm [1] | percent effect (mortality or growth inhibition) at 200 ppm [2] | percent control (mortality, anti-feedant effect or growth inhibition) at 200 ppm [4]

CCS(=O)(=O)c1cc(C2CC2)cnc1-c1cc2ccn(CC(F)(F)C(F)(F)F)c2cn1 [Compound P51, 5-(5-cyclopropyl-3-ethylsulfonyl-2-pyridyl)-1-(2,2,3,3,3-pentafluoropropyl) pyrrolo[2,3-c]pyridine]
≥ 80%: percent effect (mortality or growth inhibition) at 200 ppm [1] | percent effect (mortality or growth inhibition) at 200 ppm [2] | percent control (mortality, anti-feedant effect or growth inhibition) at 200 ppm [4]

CCSc1cc(C2CC2)c[n+]([O-])c1-c1cc2ncn(CC(F)(F)C(F)(F)F)c2cn1 [PN4, 6-(5-cyclopropyl-3-ethylsulfanyl-1-oxido-pyridin-1-ium-2-yl)-3-(2,2,3,3,3-pentafluoropropyl)imidazo[4,5-c]pyridine]
≥ 80%: percent effect (mortality or growth inhibition) at 200 ppm [3]

CCSc1cc(C2(C#N)CC2)c[n+]([O-])c1-c1cc2ncn(CC(F)(F)C(F)(F)F)c2cn1 [PN8, 1-[5-ethylsulfanyl-1-oxido-6-[3-(2,2,3,3,3-pentafluoropropyl)imidazo[4,5-c]pyridin-6-yl]pyridin-1-ium-3-yl]cyclopropane-carbonitrile]
≥ 80%: percent effect (mortality or growth inhibition) at 200 ppm [3]
